Data published in PMC3050878, “Correlation of Membrane Binding and Hydrophobicity to the Chaperone-Like Activity of PDC-109, the Major Protein of Bovine Seminal Plasma” (PLoS ONE, 2011).
One block for each compound: values may come before it.

What was measured:
PDC-109 [1] = molecular target: T1, PDC-109 (Bos taurus, UniProt P02784); assay: fluorescence titration, Scatchard analysis; assay type: binding; conditions: read-out: K a (converted)
T1 construct: native, purified from bovine seminal plasma (Sephadex G-50 gel filtration, DEAE Sephadex A-25); mature 109 residues, two FnII domains, O-glycosylated; polydisperse oligomers
T1 sequence (P02784 26-134): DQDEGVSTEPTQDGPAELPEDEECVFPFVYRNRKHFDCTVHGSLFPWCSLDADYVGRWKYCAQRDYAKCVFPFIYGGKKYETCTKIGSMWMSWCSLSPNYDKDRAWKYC

PDC-109 [2] = molecular target: T1, PDC-109; assay: near-UV CD; assay type: binding; conditions: sonicated unilamellar vesicles, 0.1 mM lipid, pH 7.4, room temperature
PDC-109 [3] = molecular target: T1, PDC-109; assay: ANS fluorescence in presence of PrC; conditions: 10 mM PrC, 50 µM ANS, 0.05 mg/mL protein; lowers ANS binding
PDC-109 [4] = molecular target: T1, PDC-109; assay: isothermal titration calorimetry, sequential binding model; conditions: read-out: Ka × 10^3 (M^-1) (converted)
Source text: isothermal titration calorimetry, sequential binding model on PDC-109

- Kd (PDC-109 [1]): 32.4 µM
Structure (SMILES): O=S(=O)(O)c1cccc2cccc(Nc3ccccc3)c12 [ANS, 8-anilinonaphthalene sulphonic acid]

Structure (SMILES): CCCCCCCCCCCCCC(=O)OC[C@H](COP(=O)([O-])OCC[N+](C)(C)C)OC(=O)CCCCCCCCCCCCC [DMPC]
- near-UV CD (PDC-109 [2]): the protein tertiary structure is altered upon phospholipid binding

Structure (SMILES): CCCCCCCCCCCCCC(=O)OC[C@H](COP(=O)(O)OCC(O)CO)OC(=O)CCCCCCCCCCCCC (some centres unmarked) [DMPG]
- near-UV CD (PDC-109 [2]): the protein tertiary structure is altered upon phospholipid binding

Structure (SMILES): C[N+](C)(C)CCOP(=O)([O-])O [PrC]
- ANS fluorescence in presence of PrC (PDC-109 [3]): PrC binding leads to a significant decrease in the surface hydrophobicity of the protein

- Kd (PDC-109 [4]): 389 µM
Structure (SMILES): O=S(=O)(O)c1cccc2c(-c3ccc(Nc4ccccc4)c4c(S(=O)(=O)O)cccc34)ccc(Nc3ccccc3)c12 [bisANS, 4,4′-Dianilino-1,1′-binaphthyl-5,5′-disulphonic acid]
